From article PMC12620000, “Exploring the feasibility of protein phosphatase 1–docking motif-mimetic cell-penetrating peptides for modulating prostate carcinogenesis” (JNCI Cancer Spectrum, 2025)
Like-named read-outs stand apart in the source and are kept apart here. Where no end group is shown, it is not given here.

Experiments:
LNCaP cells = assay type: cell-based; details: 24 h
Protocol: (§1) One mM peptide stocks were prepared as for fluorescent versions. Cells were grown to 60%-70% confluence in 96-well plates and treated with 1-20 μM peptides in RPMI-1640 (phenol red-free). After 24 or 48 hours at 37 °C, 5% CO2, PrestoBlue (1/10 dilution) was added for 30 minutes. Fluorescence (λAbs 560 nm/λEm 600 nm) was measured using an Infinite 200 PRO reader (Tecan). Each condition had 3-5 replicates, repeated in 3 independent experiments.
(§2) Figure 3. Synergistic reduction of prostate cancer cell viability by combined AR-BS peptides. […] B) Cells were treated with combinations of AR-BS peptides (5 or 10 μM of each peptide) for 24 hours to assess potential synergistic effects. Cell viability was evaluated using the PrestoBlue Cell Viability Reagent according to the manufacturer’s instructions. Percentage cell viability was calculated as the ratio between treatment and control conditions (cells without treatment). Results are expressed as mean (SD) percentage from 3 independent experiments with 5 replicates per condition. Statistical comparisons were performed using the Mann–Whitney U test. *P < .05. Abbreviations: AR-BS = androgen receptor–binding site; mitP = mitoparan.
(§3) Percentage cell viability was calculated from the ratio between treatment condition and control condition (cells with no treatment). Results are expressed as mean ± SD from three independent experiments with five replicates per condition.

PC3 cells = assay type: cell-based; details: 24 h
Protocol: as §1, §2, §3

Row | Substance | Cell viability, Mean (LNCaP cells; 5 μM) | Cell viability, Mean (LNCaP cells; 10 μM) | Cell viability, Mean (LNCaP cells; 20 μM) | Cell viability, Mean (PC3 cells; 5 μM) | Cell viability, Mean (PC3 cells; 10 μM) | Cell viability, Mean (PC3 cells; 20 μM)
1 | GSCKVFFKRAAKGKQK-NH2 [AR-BS1] | 97% | 96% | 94% | 89% | 89% | 81%
2 | KVKPIYFHTGRKKRRQRRRPPQ-NH2 [AR-BS3] | 91% | 94% | 99% | 79% | 88% | 84%
3 | RQLVHVVKWAKKL-NH2 [AR-BS2] | 95% | 96% | 83% | 93% | 87% | 81%
